Test results as given in BigSolDB 2.1.

O=C(O)CCCC[C@@H]1SC[C@@H]2NC(=O)N[C@@H]21
Details	solubility (mole fraction)
in DMF, 298.65 K	0.00356
in DMF, 303.25 K	0.00413
in DMF, 308.15 K	0.00497
in DMF, 313.15 K	0.00603
in DMF, 318.15 K	0.0075
in DMF, 323.25 K	0.00902
in DMF, 328.15 K	0.0107
in DMF, 333.15 K	0.0128
in DMSO, 298.15 K	0.0378
in DMSO, 303.15 K	0.0425
in DMSO, 308.15 K	0.0479
in DMSO, 313.15 K	0.053
in DMSO, 318.05 K	0.0582
in DMSO, 322.75 K	0.0633
in DMSO, 327.65 K	0.0687
in DMSO, 332.85 K	0.0748
in acetic acid, 298.15 K	0.00226
in acetic acid, 303.15 K	0.00283
in acetic acid, 308.15 K	0.0035
in acetic acid, 313.25 K	0.00424
in acetic acid, 317.95 K	0.00509
in acetic acid, 323.45 K	0.00646
in acetic acid, 327.85 K	0.00766
in acetic acid, 333.25 K	0.00922
in ethanol, 298.15 K	6.35e-05
in ethanol, 302.95 K	8.69e-05
in ethanol, 308.85 K	0.000133
in ethanol, 313.95 K	0.000176
in ethanol, 318.45 K	0.00023
in ethanol, 323.55 K	0.000309
in ethanol, 329.35 K	0.000442
in ethanol, 333.85 K	0.000582
in methanol, 298.15 K	6.92e-05
in methanol, 302.75 K	9.37e-05
in methanol, 308.05 K	0.000143
in methanol, 313.25 K	0.000208
in methanol, 317.85 K	0.000298
in methanol, 323.55 K	0.00046
in methanol, 327.65 K	0.000601
in methanol, 332.95 K	0.000862
in water, 298.15 K	4.97e-06
in water, 303.15 K	8.18e-06
in water, 308.05 K	1.28e-05
in water, 312.75 K	2.06e-05
in water, 318.55 K	3.52e-05
in water, 323.15 K	5.42e-05
in water, 328.95 K	9.12e-05
in water, 332.95 K	0.000129
